Laboratory results reported in patent publication EP4800012A1, “COMPOUND ACTING AS PARP7 INHIBITOR” (Dovetree Medicines Unus, Inc., priority 2023, dated 2025).

Key:
PARP7 [1] = target: T1, PARP7 (Homo sapiens, UniProt Q7Z3E1); experiment: Inhibition of the compound on PARP7 protein activity (ADP-ribosylation, chemiluminescence); type: biochemical
T1 construct: purchased BPS 80527
T1 sequence (Q7Z3E1 1-657): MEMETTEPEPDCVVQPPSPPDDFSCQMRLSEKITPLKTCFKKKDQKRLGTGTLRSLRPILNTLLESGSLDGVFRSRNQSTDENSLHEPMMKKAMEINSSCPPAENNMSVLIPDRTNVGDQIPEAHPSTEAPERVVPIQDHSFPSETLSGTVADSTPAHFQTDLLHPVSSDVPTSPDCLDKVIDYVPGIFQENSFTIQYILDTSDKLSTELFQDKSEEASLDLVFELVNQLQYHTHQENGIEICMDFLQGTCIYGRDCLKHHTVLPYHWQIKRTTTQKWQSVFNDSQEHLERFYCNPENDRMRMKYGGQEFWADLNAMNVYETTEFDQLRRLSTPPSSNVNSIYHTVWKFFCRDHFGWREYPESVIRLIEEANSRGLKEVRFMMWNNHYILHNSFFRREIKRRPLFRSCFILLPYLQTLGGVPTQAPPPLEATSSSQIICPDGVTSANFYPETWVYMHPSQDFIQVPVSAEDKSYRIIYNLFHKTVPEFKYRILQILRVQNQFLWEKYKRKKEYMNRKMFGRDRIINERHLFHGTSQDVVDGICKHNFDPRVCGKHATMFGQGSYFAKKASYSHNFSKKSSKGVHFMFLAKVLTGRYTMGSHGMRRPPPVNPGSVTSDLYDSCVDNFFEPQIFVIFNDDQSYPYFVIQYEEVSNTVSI

PARP7 [2] = target: T1, PARP7; experiment: PARP7 TR-FRET binding inhibition (displacement of probe RBN011147)
Protocol: The ability of the compound to substitute the probe RBN011147 (Wigle et al., 2020, Cell Chemical Biology 27, 877-887) was tested by a TR-FRET method, and IC50 was calculated to evaluate the binding ability of the compound to PARP7. […]

NCI-H1373 cells = experiment: Inhibition on NCI-H1373 cell proliferation (Cell-Titer-Glo); type: cell-based; conditions: Homo sapiens, 144 h; NCI-H1373 cells, incubation for 6 days, Cell-Titer-Glo; read-out: NCI-H1373 cell proliferation inhibition IC50
Protocol: The inhibitory effect of the compound on PARP7 was evaluated by testing the inhibitory effect of the compound on NCI-H1373 cell proliferation.
NCI-H1373 cells (ATCC, CRL-5866) were cultured in a complete medium, namely, a RPMI-1640 medium (Gibco, 22400089) containing 10% fetal bovine serum (Corning, 35-081-CV).
Negative control wells and positive control wells were added with 50 nL DMSO (Sigma, D2650), respectively.
In "Day 0" detection plate, NCI-H1373 cells were seeded at a density of 600 cells/well (50 µL) in a complete medium into the Day 0 test wells of a 384-well detection plate (Grenier, 781091). Then, 25 µL of Cell-Titer-Glo reagent (Promega, G7573) was added to each well, followed by centrifugation at 1000 rpm at room temperature for 1 minute and incubation at room temperature under shaded conditions for 10 min. Chemiluminescence signals were collected using an Envision (Perkin Elmer, EnVision 2105) to obtain the average value of the Day 0 test values.
In "compound detection plate", NCI-H1373 cells were seeded at a density of 600 cells/well (50 µL) in a complete medium into the negative control wells and the compound detection wells of a 384-well detection plate (Grenier, 781091), and 50 µL of cell culture medium was added to the positive control wells, followed by centrifugation at 1000 rpm at room temperature for 1 minute and placing in a cell incubator at 37°C, 5% CO2 for incubation for 6 days. […] Chemiluminescence signals were collected using an Envision (Perkin Elmer, EnVision 2105). The test values for each compound well, negative control well, and positive control well were obtained.
The proliferation inhibition ratio formula is as follows: [formula]
The average value of the negative control = the average value of the Day 6 test values of each negative control well minus the average value of the Day 0 test values
The average value of the positive control = the average value of the Day 6 test values of each positive control well
The average value of the compound test = (the Day 6 test value of compound test well 1 + the Day 6 test value of compound test well 2)/2 - the average value of the Day 0 test values

[3] = Histone H1 coated plate, Biotin-Labeled NAD+, 2 h at room temperature, chemiluminescence, read-out: PARP7 activity inhibition IC50
[4] = TR-FRET, Biotin-labeled probe RBN011147, read-out: PARP7 binding inhibition IC50

Row | SMILES | IC50 (PARP7 [1]; [3]) [nM] | IC50 (PARP7 [2]; [4]) [nM] | IC50 (NCI-H1373 cells) [nM] | IC50 (PARP7 [1]) [nM] | IC50 (PARP7 [2]) [nM] | IC50 (PARP7 [1]; read-out: PARP7 activity inhibition IC50, Histone H1 coated plate, Biotin-Labeled NAD+, 2 h at room temperature, chemiluminescence) [nM] | IC50 (PARP7 [2]; read-out: PARP7 binding inhibition IC50, TR-FRET, Biotin-labeled probe RBN011147) [nM]
1 | CC(CCCNC(=O)c1ncc(-c2ncc(C(F)F)s2)cc1F)Nc1cn[nH]c(=O)c1C(F)(F)F (stereo not drawn) [Example 74] | < 3 | < 10 | > 3000 | – | – | – | –
2 | CC(CCCNC(=O)c1ccc(-c2ncn(C)n2)cc1)Nc1cn[nH]c(=O)c1C(F)(F)F (stereo not drawn) [Example 47] | 3 to 10 | 10 to 30 | > 3000 | – | – | – | –
3 | CC(CCCNC(=O)c1ccc(-c2ncc(N3CCOCC3)s2)cc1)Nc1cn[nH]c(=O)c1C(F)(F)F (stereo not drawn) [Example 15] | 3 to 10 | 10 to 30 | > 3000 | – | – | – | –
4 | CC(CCCNC(=O)c1ccc(-c2ncc(N3CC(F)C3)s2)cc1)Nc1cn[nH]c(=O)c1C(F)(F)F (stereo not drawn) [Example 16] | 3 to 10 | 10 to 30 | > 3000 | – | – | – | –
5 | Cc1cc(NC(C)CCCNC(=O)c2cnc(-c3ncc(C(F)(F)F)cn3)cn2)c(C#N)c(=O)[nH]1 (stereo not drawn) [Example 35] | – | – | > 3000 | 10 to 30 | 30 to 100 | – | –
6 | C[C@@H](CCCNC(=O)c1ccc(-c2nccs2)cn1)Nc1cn[nH]c(=O)c1C(F)(F)F [Example 46] | – | – | > 3000 | – | – | 10 to 30 | 10 to 30
7 | CC(CCCNC(=O)c1ccc(-n2cc(C(F)(F)F)cn2)cc1F)Nc1cn[nH]c(=O)c1C(F)(F)F (stereo not drawn) [Example 176] | < 3 | < 10 | < 300 | – | – | – | –
8 | CC(CCCNC(=O)c1ccc(-c2cc(C(F)(F)F)nn2C)cc1)Nc1cn[nH]c(=O)c1C(F)(F)F (stereo not drawn) [Example 245] | 10 to 30 | > 100 | > 3000 | – | – | – | –
9 | CC(CCCNC(=O)c1cnc(-c2cscn2)c(F)c1)Nc1cn[nH]c(=O)c1C(F)(F)F (stereo not drawn) [Example 178] | < 3 | 10 to 30 | > 3000 | – | – | – | –
10 | CCOc1cnc(-c2ccc(C(=O)NCCCC(C)Nc3cn[nH]c(=O)c3C(F)(F)F)cc2)s1 (stereo not drawn) [Example 40] | < 3 | 10 to 30 | > 3000 | – | – | – | –
11 | CC(CCCNC(=O)c1ccc(-c2ncc(CC3CCCC3)s2)cc1)Nc1cn[nH]c(=O)c1C(F)(F)F (stereo not drawn) [Example 43] | < 3 | < 10 | < 300 | – | – | – | –
12 | CC(CCCNC(=O)c1ccc(-c2ncc(C(F)(F)F)s2)cc1F)Nc1cn[nH]c(=O)c1C(F)(F)F (stereo not drawn) [Example 77] | < 3 | < 10 | < 300 | – | – | – | –
13 | CC(CCCNC(=O)c1ccc(-n2cc(C(F)(F)F)cn2)cc1)Nc1cn[nH]c(=O)c1C(F)(F)F (stereo not drawn) [Example 61] | < 3 | < 10 | < 300 | – | – | – | –
14 | CC(CCCNC(=O)c1cccc2c1CCN2c1ncc(C(F)(F)F)cn1)Nc1cn[nH]c(=O)c1C(F)(F)F (stereo not drawn) [Example 5] | < 3 | 10 to 30 | > 3000 | – | – | – | –
15 | CC(CCCNC(=O)c1ccc(-c2ncc(C(F)F)s2)cn1)Nc1cn[nH]c(=O)c1C#N (stereo not drawn) [Example 28] | 30 to 100 | > 100 | > 3000 | – | – | – | –
16 | CC(CCCNC(=O)c1ccc(-c2csc(C(F)(F)F)n2)nc1)Nc1cn[nH]c(=O)c1C(F)(F)F (stereo not drawn) [Example 177] | < 3 | < 10 | 1000 to 3000 | – | – | – | –
17 | CCCc1cnc(-c2ccc(C(=O)NCCCC(C)Nc3cn[nH]c(=O)c3C(F)(F)F)cc2)s1 (stereo not drawn) [Example 41] | < 3 | 10 to 30 | 300 to 1000 | – | – | – | –
18 | CC(CCCNC(=O)c1ccc(-c2nn(C)cc2F)cc1)Nc1cn[nH]c(=O)c1C(F)(F)F (stereo not drawn) [Example 192] | 3 to 10 | 30 to 100 | > 3000 | – | – | – | –
